A short description of data set [1]: Cytotoxicity against human MRC5 cells. The class given is toxicity, cell-based.
Data set [2] deals with Saccharomyces cerevisiae. In words: Ratio of IC50 for Saccharomyces cerevisiae wild type KRS1 to IC50 for Saccharomyces cerevisiae KRS1 Thr340Ser mutant.
In data set [3] the test system is Saccharomyces cerevisiae. In words: Ratio of IC50 for Saccharomyces cerevisiae wild type KRS1 to IC50 for Saccharomyces cerevisiae KRS1 Gln324Val/Thr340Ser mutant.
Data set [4] in a line: Inhibition of Plasmodium falciparum Lysyl-tRNA ligase expressed in Escherichia coli Tuner (DE3) cells assessed as suppression of L-lysine-tRNA(Lys) formation in presence of AMP-Alexa633 tracer after 4 hrs by fluorescence polarization assay. (In fluorescence polarisation assays a small probe gives low polarisation when free and higher when bound to something large.)
Data set [5] deals with Saccharomyces cerevisiae. In words: Ratio of IC50 for Saccharomyces cerevisiae wild type KRS1 to IC50 for Saccharomyces cerevisiae KRS1 Gln324Val mutant.
Data set [6] can be described thus: Selectivity ratio of IC50 for human Lysyl-tRNA ligase to IC50 for Plasmodium falciparum Lysyl-tRNA ligase.
Data set [7] has as its system Plasmodium berghei. In words: Antimalarial activity against liver stage of Plasmodium berghei ANKA. The class given is functional.
Data set [8] in a line: Inhibition of bovine liver TrpRS assessed as suppression of L-[5-3H]tryptophanyl-tRNA formation after 10 mins by liquid scintillation counting method. Also on record: species or system Bos taurus.
The nature of data set [9]: Inhibition of Escherichia coli TrpRS assessed as suppression of L-[5-3H]tryptophanyl-tRNA formation after 10 mins by liquid scintillation counting method.
Data set [10] has as its target T1, Isoleucine--tRNA ligase (Thermus thermophilus (strain HB8 / ATCC 27634 / DSM 579), UniProt P56690).
T1 sequence (P56690 whole entry): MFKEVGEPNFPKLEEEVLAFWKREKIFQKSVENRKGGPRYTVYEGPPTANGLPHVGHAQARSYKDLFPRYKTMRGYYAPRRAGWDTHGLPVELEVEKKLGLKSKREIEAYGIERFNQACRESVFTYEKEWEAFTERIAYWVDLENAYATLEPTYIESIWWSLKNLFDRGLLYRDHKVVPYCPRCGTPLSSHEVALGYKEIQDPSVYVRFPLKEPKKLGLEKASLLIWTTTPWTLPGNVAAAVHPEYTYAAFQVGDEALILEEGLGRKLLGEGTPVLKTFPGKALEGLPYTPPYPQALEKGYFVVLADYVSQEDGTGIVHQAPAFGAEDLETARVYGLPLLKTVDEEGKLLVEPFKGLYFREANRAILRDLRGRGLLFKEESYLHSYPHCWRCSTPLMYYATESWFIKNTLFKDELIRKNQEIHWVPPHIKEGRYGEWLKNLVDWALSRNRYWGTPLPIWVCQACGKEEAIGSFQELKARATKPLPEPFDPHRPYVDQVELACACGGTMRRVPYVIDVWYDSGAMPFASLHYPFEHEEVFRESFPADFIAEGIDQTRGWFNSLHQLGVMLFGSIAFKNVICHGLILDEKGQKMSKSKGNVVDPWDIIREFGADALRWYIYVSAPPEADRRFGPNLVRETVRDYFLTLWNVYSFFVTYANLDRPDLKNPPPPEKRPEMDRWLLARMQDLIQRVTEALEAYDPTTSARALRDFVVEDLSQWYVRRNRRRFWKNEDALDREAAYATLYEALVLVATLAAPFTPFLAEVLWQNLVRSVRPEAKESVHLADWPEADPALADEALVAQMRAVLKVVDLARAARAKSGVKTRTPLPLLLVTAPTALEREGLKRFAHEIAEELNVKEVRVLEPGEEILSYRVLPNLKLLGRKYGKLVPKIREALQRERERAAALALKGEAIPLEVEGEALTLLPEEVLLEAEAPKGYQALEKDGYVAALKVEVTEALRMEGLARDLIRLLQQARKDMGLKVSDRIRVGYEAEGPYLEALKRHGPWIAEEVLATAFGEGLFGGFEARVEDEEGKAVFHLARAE
In words: Inhibition of recombinant Thermus thermophilus HB8 wild type IleRS assessed as suppression of L-[14C]isoleucyl-tRNA(Ile) formation.

Data set [11] addresses Isoleucine--tRNA ligase (Thermus thermophilus (strain HB8 / ATCC 27634 / DSM 579), UniProt P56690, H581N/L583F). Description: Inhibition of recombinant Thermus thermophilus HB8 IleRS H581N/L583F double mutant assessed as suppression of L-[14C]isoleucyl-tRNA(Ile) formation.
Data set [12] has as its target Isoleucine--tRNA ligase (Thermus thermophilus (strain HB8 / ATCC 27634 / DSM 579), UniProt P56690, H581S/L583I). Description: Inhibition of recombinant Thermus thermophilus HB8 IleRS H581S/L583I double mutant assessed as suppression of L-[14C]isoleucyl-tRNA(Ile) formation.
Data set [13] has as its target Isoleucine--tRNA ligase (Thermus thermophilus (strain HB8 / ATCC 27634 / DSM 579), UniProt P56690, L583F). Description: Inhibition of recombinant Thermus thermophilus HB8 IleRS L583F mutant assessed as suppression of L-[14C]isoleucyl-tRNA(Ile) formation.
Data set [14] has as its target Isoleucine--tRNA ligase (Thermus thermophilus (strain HB8 / ATCC 27634 / DSM 579), UniProt P56690, H581L/L583H). Description: Inhibition of recombinant Thermus thermophilus HB8 IleRS H581L/L583H double mutant assessed as suppression of L-[14C]isoleucyl-tRNA(Ile) formation.

Chain of Isoleucine--tRNA ligase (Thermus thermophilus (strain HB8 / ATCC 27634 / DSM 579), UniProt P56690, H581L/L583H) (P56690 whole entry H581L/L583H): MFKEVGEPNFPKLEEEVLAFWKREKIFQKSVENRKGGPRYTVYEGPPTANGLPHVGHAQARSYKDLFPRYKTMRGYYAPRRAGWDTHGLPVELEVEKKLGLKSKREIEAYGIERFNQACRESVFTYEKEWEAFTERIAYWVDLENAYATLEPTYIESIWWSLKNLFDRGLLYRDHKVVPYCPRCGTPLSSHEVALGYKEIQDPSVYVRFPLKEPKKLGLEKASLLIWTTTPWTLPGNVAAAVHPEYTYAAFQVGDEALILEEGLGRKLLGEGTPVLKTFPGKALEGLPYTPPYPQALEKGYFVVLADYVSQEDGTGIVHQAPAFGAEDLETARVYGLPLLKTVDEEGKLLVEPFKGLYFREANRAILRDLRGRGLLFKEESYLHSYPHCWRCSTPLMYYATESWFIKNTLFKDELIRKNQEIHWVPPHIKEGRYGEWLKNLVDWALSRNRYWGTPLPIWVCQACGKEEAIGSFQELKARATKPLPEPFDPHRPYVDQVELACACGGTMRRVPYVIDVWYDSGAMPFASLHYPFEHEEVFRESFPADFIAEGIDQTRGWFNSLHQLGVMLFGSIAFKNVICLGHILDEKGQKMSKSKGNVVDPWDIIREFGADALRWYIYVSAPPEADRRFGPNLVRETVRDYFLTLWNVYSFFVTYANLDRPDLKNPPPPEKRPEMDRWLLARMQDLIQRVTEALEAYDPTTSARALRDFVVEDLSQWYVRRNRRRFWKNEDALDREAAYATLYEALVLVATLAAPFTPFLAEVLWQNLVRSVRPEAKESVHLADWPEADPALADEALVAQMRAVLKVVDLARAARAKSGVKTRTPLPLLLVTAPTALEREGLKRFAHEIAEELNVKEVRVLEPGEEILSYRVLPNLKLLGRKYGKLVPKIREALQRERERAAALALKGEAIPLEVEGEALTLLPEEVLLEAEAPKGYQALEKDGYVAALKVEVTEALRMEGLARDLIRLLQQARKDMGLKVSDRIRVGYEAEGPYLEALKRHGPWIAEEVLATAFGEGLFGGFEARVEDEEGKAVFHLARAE
Chain of Isoleucine--tRNA ligase (Thermus thermophilus (strain HB8 / ATCC 27634 / DSM 579), UniProt P56690, H581S/L583I) (P56690 whole entry H581S/L583I): as the sequence (P56690 whole entry H581L/L583H) above, with L581S, H583I counted along it
Chain of Isoleucine--tRNA ligase (Thermus thermophilus (strain HB8 / ATCC 27634 / DSM 579), UniProt P56690, H581N/L583F) (P56690 whole entry H581N/L583F): as the sequence (P56690 whole entry H581L/L583H) above, with L581N, H583F counted along it
Chain of Isoleucine--tRNA ligase (Thermus thermophilus (strain HB8 / ATCC 27634 / DSM 579), UniProt P56690, L583F) (P56690 whole entry L583F): as the sequence (P56690 whole entry H581L/L583H) above, with L581H, H583F counted along it

In data set [1], `C[C@@H]1C[C@H](C)C[C@H](C)[C@@H](O)CC(=O)O[C@H]([C@@H]2CCC[C@H]2C(=O)OCc2cn(CSc3ccccc3)nn2)C/C=C/C=C(/C#N)[C@H](O)[C@@H](C)C1` gave an Activity of 16800 ng/mL.
As usually defined, the IC50 is the point on the concentration scale where inhibition reaches its midpoint. With `C[C@H]1CCC[C@H](CC2Cc3cc(O)cc(O)c3C(=O)O2)O1` (stereo partly specified), the Ratio IC50 in data set [2] was 10.4; in data set [3] it was 38.7; in [5] it was 5.7; in data set [6], more than 100. Moreover, in [4], the IC50 came to 40 nM.
As a reminder, the EC50 is the concentration giving half of the maximal effect. For `O=c1c2cc(Cl)c(Br)cc2ncn1C[C@@H](O)C[C@H]1NCCC[C@@H]1O`, the EC50 in [7] stood at 14 nM.
For the compound `C[C@@H]1C[C@H](C)C[C@H](C)[C@@H](O)CC(=O)O[C@H]([C@@H]2CCC[C@H]2C(=O)O)C/C=C/C=C(/C#N)[C@H](O)[C@@H](C)C1` [BORRELIDIN], the Activity in [1] is 201 ng/mL.
Turning to `O=C(CC1NCCCC1O)Cn1cnc2cc(Br)c(Cl)cc2c1=O` (stereo unspecified) [HALOFUGINONE], in data set [7], the concentration for a half-maximal effect (EC50) amounted to 17 nM.
Regarding `CNC1=NC(=O)[C@H]([C@H](C)c2c[nH]c3ccccc23)O1` [INDOMYCIN], the half-maximal inhibitory concentration (IC50) was 4.04 mM in data set [8] and 9.25 nM in data set [9].
By Ki is commonly meant the dissociation constant of the complex between target and ligand, obtained from inhibition or displacement. Take `C/C(=C\C(=O)OCCCCCCCCC(=O)O)C[C@@H]1OC[C@H](C[C@@H]2O[C@H]2[C@@H](C)[C@H](C)O)[C@@H](O)[C@H]1O` [MUPIROCIN]: the Ki in data set [10] amounted to 250 nM; in data set [11], 2730 nM; in data set [12] it was 15 µM; in [13] it was 60 nM; in data set [14], 2310 nM.

These data come from ChEMBL document CHEMBL3861949 (Medchemcomm, 2016).
